Results from US20120095062A1, “TRICYCLIC COMPOUNDS, COMPOSITIONS, AND METHODS” (Pfizer Inc., priority 2007, published 2012).
Structures can show the parent of a compound that is named as a salt. Where two headings read alike, the source gives them in different places.

What was measured:
[1] = system: IL-6, Human A549 lung epithelial cells; test: IL-6 inhibition in IL-1β-stimulated A549 cells; assay type: cell-based; conditions: for IC50: A549, 20 h, A549 cells, 1 ng/mL IL-1β, 20 hours, read-out: IL-6 IC50; for inhibition: A549, A549 cells, Prednisolone (1 μM) = 100% inhibition control
Method: Human A549 lung epithelial cells (American Type Culture Collection, Rockville, Md.) were cultured in Kaighn's F-12K medium with penicillin-streptomycin (10 U/mL) and 10% heat-inactivated fetal bovine serum (all from Invitrogen, Grand Island, N.Y.). A549 cells were plated at a density of 30,000 cells/well in 96-well plates and incubated overnight at 37° C. and with 5% CO2. The cells were serum-starved by replacing the growth medium with serum-free Kaighn's F-12K medium with penicillin-streptomycin (10 U/mL) and, again, incubating overnight at 37° C. and with 5% CO2. On the third day, the medium was replaced with fresh serum-free medium and the cells were incubated with or without compound (vehicle was DMSO at 0.1% maximum concentration) for approximately 1 hour and then stimulated with 1 ng/mL recombinant human IL-1β (R&D Systems, Minneapolis, Minn.) for 20 hours at 37° C. and with 5% CO2. Cell supernatants were collected for determination of IL-6 levels using MSD (Meso Scale Discovery, Gaithersburg, Md.) 96-well Single Spot plates as per the manufacturer's instructions. Plates were read with an MSD Sector Imager 6000. […] Vehicle was used to define the 0% inhibition control. Percent inhibition for each compound concentration, relative to these controls, was calculated using Excel (Microsoft, Redmond, Wash.). IC50 values were generated using GraFit 5.0 data analysis software (Erithacus Software Ltd., Surrey, UK).

[2] = system: TNFα, U937 cells; test: TNFα inhibition in LPS-stimulated differentiated U937 cells; assay type: cell-based; parameters: inhibition: dose or concentration left out as unconfirmed; conditions: Homo sapiens
Method: Cells were differentiated to a monocyte/macrophage phenotype with phorbol 12-myristate 13-acetate (Sigma-Aldrich, St. Louis, Mo.), 20 ng/mL, overnight. […] Following recovery, the cells were scraped, counted, and plated in accordance to the experimental design prior to stimulation with LPS, as described below. U937 cells were differentiated and plated at a density of 200,000 cells/well in 96-well plates. […] Louis, Mo.) for four hours at 37° C. and with 5% CO2. Cell supernatants were collected for determination of TNFα levels using an in-house sandwich-type ELISA. Mouse anti-human TNFα monoclonal antibody (clone 28401.111) and biotinylated goat anti-human TNFα (R&D Systems, Minneapolis, Minn.) were used as the capture and detection antibodies, respectively. Streptavidin-horseradish peroxidase (HRP) (R&D Systems, Minneapolis, Minn.) and K-Blue Substrate/Red Stop (Neogen, Lexington, Ky.) were used as the detection system. Absorbance was measured at 650 nm. TNFα concentrations were interpolated from a human TNFα recombinant protein (R&D Systems, Minneapolis, Minn.) standard curve using a four parameter logistics model by Magellan 4.11 data analysis software (Tecan, Durham, N.C.). […] Vehicle was used to define the 0% inhibition control. Percent inhibition for each concentration of compound, relative to these controls, was calculated using Excel (Microsoft, Redmond, Wash.).

[3] = system: IFNγ; test: Ex vivo LPS-stimulated human whole blood, IFNγ production; assay type: cell-based; conditions: mean
Method: (§1) Venous blood from human donors was collected as 10 ml aliquots in tubes containing sodium heparin (BD Vacutainer from Becton Dickinson and Company, Franklin Lakes, N.Y.). Blood was added to sterile polystyrene round bottom 96-well tissue culture plates (Corning Costar) at 100 μl/well, omitting the outside wells. Media (RPMI Medium 1640 with L-glutamine, Invitrogen Corporation, Carlsbad, Calif.) was added to the blood in 90 μl aliquots for a total volume of 190 μl. Outside wells were filled with 200 μl of media. Blood was placed in a humidified 37° C. incubator with 5% CO2 while compounds were prepared (nearly 60 minutes).
(§2) Compounds were prepared from 10 mM stock solutions in dimethylsulfoxide (DMSO, Sigma-Aldrich). […] Final DMSO and ethanol concentrations in the assay were 0.1% and 1.5%. The samples were gently triturated twice to mix and replaced in the incubator. LPS stock (E. coli serotype 0111:84, Sigma-Aldrich), stored in aliquots of 100 μg/ml in RPMI at −20° C., was diluted 1/50 in RPMI to make a working stock solution. After 60 minutes of incubation, 10 μl of the prepared LPS working stock was added to the blood to a final concentration of 100 ng/ml, omitting wells to be used as negative control. The samples were again gently triturated and the plates incubated overnight for 22 hours. Following incubation, the blood was centrifuged at 1500×g for 5 minutes and the plasma removed to either freeze at −20° C. or assay for cytokine release.
(§3) IL-1β, IFNγ,IL-6, and TNFα protein levels were measured using Meso Scale assay kits (Meso Scale Discovery, Gaithersburg, Md.). Reagents were allowed to come to room temperature. Meso Scale plates were blocked with […] of human plasma/serum assay diluent with gentle shaking for 60 minutes at room temperature. Plates were washed 3× with wash buffer (PBS, Invitrogen Corporation, with 0.05% Tween-20, Sigma-Aldrich). Calibrators for standard curves were prepared in human plasma/serum assay diluent as a 1/5 serial dilution to achieve final concentrations ranging from 50000 pg/ml to 3.2 pg/ml. Samples and calibrators were added at 20 μl/well, then incubated at room temperature with gentle shaking for 90 minutes. Plates were again washed 3 times with wash buffer. Detection antibody was diluted in human plasma/serum antibody diluent to 1 μg/ml and added to the plate at 20 μl/well. Plates were incubated as before for 60 minutes and washed again. Read Buffer T (4×) was diluted 1:1 with mqH2O to 2 times concentration and 150 μl added to each well. Plates were analyzed on the SECTOR Imager 6000 (Meso Scale Discovery) to generate raw signal values.
(§4) IL-1β, IFNγ, IL-6, and TNFα sample values were verified to be within the calibrator standard curves. Individual values were compared to positive and negative controls (vehicle treated blood with LPS and vehicle treated blood without LPS, respectively) to generate % inhibition. Triplicate values were averaged for each donor. The values for two donors were averaged (only one donor was used for IL-1β) and graphed using 4-parameter fit curves in the GraFit 5.0.11 application.

[4] = system: TNFα; test: Ex vivo LPS-stimulated human whole blood, TNFα production; assay type: cell-based; conditions: mean
Method: as §1, §2, §3
as §4, with “Individual” for “IL-1β, IFNγ, IL-6, and TNFα sample values were verified to be within the calibrator standard curves. Individual”

[5] = system: IL-1β; test: Ex vivo LPS-stimulated human whole blood, IL-1β production; assay type: cell-based; conditions: one donor
Method: as §1, §2, §3, §4

[6] = system: IL-6; test: Ex vivo LPS-stimulated human whole blood, IL-6 production; assay type: cell-based; conditions: mean
Method: as §1, §2, §3, §4

[7] = system: LPS-induced serum TNFα; test: LPS-induced serum TNFα suppression, 28-day repeat dose mouse model; assay type: in vivo; conditions: 672 h, mice, oral gavage 28 days
[8] = system: Serum osteocalcin; test: Serum osteocalcin suppression, 28-day repeat dose mouse model; assay type: in vivo, mice; conditions: Mus musculus, 672 h; mice, oral gavage 28 days, serum osteocalcin
[9] = system: Mouse Collagen-induced arthritis; test: Therapeutic mouse collagen-induced arthritis (mCIA) model; assay type: in vivo; conditions: mice, dosing day 34 through day 49, read-out: Therapeutic mCIA (ED50 dose)
From the text: Mouse Collagen-induced arthritis is a commonly used chronic, preclinical model of rheumatoid arthritis in which joint swelling and bone destruction occur following immunization with type II collagen. Reduction of disease incidence and severity has been shown previously to be predictive of disease-modification and signs and symptoms mitigation, respectively, in a clinical setting.
In the therapeutic mCIA model, induction of disease incidence and severity was synchronized via LPS stimulation. Male […] mice were immunized with 100 ug of bovine type II collagen (bCII) on day 0. All mice received an intraperitoneal injection of 20 μg of LPS on day 28 and disease was allowed to develop through day 34. At day 34, all mice had disease (incidence=100%) with an average severity score of seven. Dosing of compounds was initiated in the therapeutic mode on day 34 and continued through day 49. Different treatments were compared by measuring the decrease in incidence (i.e., resolution of disease) and the decrease in severity of paw swelling over time.

[10] = U-937, 4 h, U937 cells, 100 ng/mL LPS, four hours, read-out: TNFα IC50

Cc1ncccc1CNC(=O)c1ccc2c(c1)CC[C@@H]1C[C@@](O)(CCC(F)(F)F)CC[C@@]21Cc1ccccc1 [Comparator A, (4βS,7S,8αR)-4β-benzyl-7-hydroxy-N-((2-methylpyridin-3-yl)methyl)-7-(3,3,3-trifluoropropyl)-4β,5,6,7,8,8α,9,10-octahydrophenanthrene-2-carboxamide]
IC50 [1]: > 36.4 nM | inhibition [1]: 59.9% | inhibition ([2]; U-937): 35% | IC50 [2, 10]: > 1000 nM | inhibition at 0.00137174 µM ([3]; 1.371742 nM): 18.1% | inhibition at 0.00411523 µM ([3]; 4.115226 nM): -1.7% | inhibition at 0.0123457 µM ([3]; 12.34568 nM): 0.016% | inhibition at 0.037037 µM ([3]; 37.03704 nM): -9.81% | inhibition at 0.111111 µM ([3]; 111.1111 nM): 8.74% | inhibition at 0.333333 µM ([3]; 333.3333 nM): -6.32% | inhibition at 1 µM ([3]; 1000 nM): 16.5% | inhibition at 3 µM ([3]; 3000 nM): 28% | inhibition at 0.00137174 µM ([4]; 1.371742 nM): 18.1% | inhibition at 0.00411523 µM ([4]; 4.115226 nM): -0.861% | inhibition at 0.0123457 µM ([4]; 12.34568 nM): 0.0309% | inhibition at 0.037037 µM ([4]; 37.03704 nM): -4.19% | inhibition at 0.111111 µM ([4]; 111.1111 nM): -3.82% | inhibition at 0.333333 µM ([4]; 333.3333 nM): -4.61% | inhibition at 1 µM ([4]; 1000 nM): -5.44% | inhibition at 3 µM ([4]; 3000 nM): -3.04% | inhibition at 0.00137174 µM ([5]; 1.371742 nM): 32% | inhibition at 0.00411523 µM ([5]; 4.115226 nM): 22% | inhibition at 0.0123457 µM ([5]; 12.34568 nM): 22.8% | inhibition at 0.037037 µM ([5]; 37.03704 nM): 17.3% | inhibition at 0.111111 µM ([5]; 111.1111 nM): 8.6% | inhibition at 0.333333 µM ([5]; 333.3333 nM): 12.2% | inhibition at 1 µM ([5]; 1000 nM): 15% | inhibition at 3 µM ([5]; 3000 nM): 16.4% | inhibition at 0.00137174 µM ([6]; 1.371742 nM): 1.46% | inhibition at 0.00411523 µM ([6]; 4.115226 nM): -4.34% | inhibition at 0.0123457 µM ([6]; 12.34568 nM): -1.13% | inhibition at 0.037037 µM ([6]; 37.03704 nM): -3.52% | inhibition at 0.111111 µM ([6]; 111.1111 nM): -3.5% | inhibition at 0.333333 µM ([6]; 333.3333 nM): -2.83% | inhibition at 1 µM ([6]; 1000 nM): -0.89% | inhibition at 3 µM ([6]; 3000 nM): -1.97% | ED50 [7]: 60 mg/kg | ED50 [8]: 37 mg/kg

Cc1cnc(NC(=O)c2ccc3c(c2)CC[C@@H]2C[C@@](O)(C(F)(F)F)CC[C@@]32Cc2ccccc2)c(C)n1 [Comparator B, (4βS,7R,8αR)-4β-benzyl-N-(3,5-dimethylpyrazin-2-yl)-7-hydroxy-7-(trifluoromethyl)-4β,5,6,7,8,8α,9,10-octahydrophenanthrene-2-carboxamide]
IC50 [1]: 4 nM | inhibition [1]: 75.8% | ED50 [9]: 2.9 mg/kg | ED50 [7]: 1.64 mg/kg | ED50 [8]: 2.39 mg/kg

Cc1ccncc1NC(=O)c1ccc2c(c1)CC[C@@H]1C[C@@](O)(C(F)(F)F)CC[C@@]21Cc1ccccc1 [Comparator D, (4βS,7R,8αR)-4β-benzyl-7-hydroxy-N-(4-methylpyridin-3-yl)-7-(trifluoromethyl)-4β,5,6,7,8,8α,9,10-octahydrophenanthrene-2-carboxamide]
IC50 [1]: 1.3 nM | inhibition [1]: 79.8% | ED50 [7]: 1.47 mg/kg | ED50 [8]: 1.18 mg/kg

Cc1c(NC(=O)c2ccc3c(c2)CC[C@@H]2C[C@@](O)(C(F)(F)F)CC[C@@]32Cc2ccccc2)ccc[n+]1[O-] [Comparator G]
IC50 [1]: 2.1 nM | inhibition [1]: 80.1% | ED50 [7]: 2.9 mg/kg | ED50 [8]: 1.12 mg/kg

Cc1ncccc1NC(=O)c1ccc2c(c1)CC[C@@H]1C[C@@](O)(C(F)F)CC[C@@]21Cc1ccccc1 [Comparator H, (4βS,7R,8αR)-4β-benzyl-7-(difluoromethyl)-7-hydroxy-N-(2-methylpyridin-3-yl)-4β,5,6,7,8,8α,9,10-octahydrophenanthrene-2-carboxamide]
IC50 [1]: 4.3 nM | inhibition [1]: 64.9% | ED50 [7]: 0.23 mg/kg | ED50 [8]: 0.51 mg/kg

Cc1ncccc1NC(=O)c1ccc2c(c1)CC[C@@H]1C[C@@](O)(C(F)(F)F)CC[C@@]21Cc1ccccc1 [Example 1 HCL salt, (4βS,7R,8αR)-4β-benzyl-7-hydroxy-N-(2-methylpyridin-3-yl)-7-(trifluoromethyl)-4β,5,6,7,8,8α,9,10-octahydrophenanthrene-2-carboxamide]
IC50 [1]: 0.4 nM | inhibition [1]: 76.9% | inhibition ([2]; U-937): 77.1% | IC50 [2, 10]: 92.1 nM | IC50 ([2]; U-937, value in brackets, footnote a: additional results that were found, read-out: TNFα IC50 (nM), additional result): 28.8 nM

Cc1ncccc1NC(=O)c1ccc2c(c1)CC[C@@H]1C[C@@](OP(=O)(O)O)(C(F)(F)F)CC[C@@]21Cc1ccccc1 [Example 2, (2R,4αS,10αR)-4α-benzyl-7-((2-methylpyridin-3-yl)carbamoyl)-2-(trifluoromethyl)-1,2,3,4,4α,9,10α-octahydrophenanthren-2-yl dihydrogen phosphate]
IC50 [1]: 60 nM
